Laboratory results reported in US7238781B2, “Plant defensin polynucleotides and methods of use thereof” (E. I. DuPont de Nemours and Company, priority 1999, dated 2007).

Key:
Format in all cases: cell-based
Sclerotinia sclerotiorum = experiment: In vitro 96 well microtiter plate assay, inhibition of hyphal growth; settings: 24 hours at 22° C., 2 replicates
Procedure: An in vitro assay was also performed in a 96 well microtiter plate to determine the activity of Pps-AMP1 mature peptide against Sclerotinia sclerotiorum. Test inoculum was started by inoculating ½ strength potato dextrose broth (PDB) liquid with a sterile loop of hyphae from a Sclerotinia culture propagated on ⅛ strength potato dextrose agar (PDA) plate. Liquid inoculum was held at room temperature (22° C.), without shaking, in the dark for 4 days, to allow sufficient growth of hyphae. The resulting suspension was macerated using a polytron tissue grinder. The sample was then diluted to the point of invisibility to the naked eye (observation under microscopy at 40× indicated the presence of hyphal fragments). […] […] Sclerotinia hyphae only, or ½ strength PDB only, were included as negative controls.

[1] = system: Colletotrichum graminaria; experiment: Bioactivity of Pps-AMP1 mature peptide against fungal pathogens (spore suspension in 1/2 strength PDB); settings: concentration at which 90% of fungal growth is inhibited, 48 hour incubation at 28° C.
Procedure: (§1) The purified refolded and lyophilized Pps-AMP1 mature peptide was resuspended in dH2O to a final concentration of about 4 μg/μl. 12 μg of purified Pps-AMP1 mature peptide was added to 200 μl of ½ strength potato dextrose broth (PDB) containing a spore suspension of either Fusarium verticilloides, Colletotrichum graminaria, or Neurospora crassa containing 2500 spores/ml. […] A 0.5× dilution series for Pps-AMP1 mature peptide from 10 μM through to about 0.005 μM was prepared by removing 100 μl of the 10 μM stock and adding it to 100 μl of spore suspension (2500 spores/ml), mixing thoroughly to achieve a 5 μM Pps-AMP1 mature peptide concentration, transferring 100 μl of the 5 μM suspension to a fresh 100 μl spore suspension etc., until about 0.005 μM was reached. Two replicates per pathogen were performed. […] Inhibition of fungal growth was defined as little to no spore germination without detectable hyphae growth. The bioactivity of Pps-AMP1 mature peptide against these fungal pathogens is shown below. The IC90 concentration represents that concentration at which 90% of fungal growth is inhibited.

Fusarium verticilloides = experiment: as above; settings: concentration at which 90% of fungal growth is inhibited, 48 hour incubation at 28° C.
Procedure: as §1

Neurospora crassa = experiment: as above; settings: concentration at which 90% of fungal growth is inhibited, 48 hour incubation at 28° C.
Procedure: as §1

Compound | inhibition of fungal growth (Sclerotinia sclerotiorum; 0.023 μM) | inhibition of fungal growth (Sclerotinia sclerotiorum; 17–0.07 μM) | IC90 [1] [nM] | IC90 (Fusarium verticilloides) [nM] | IC90 (Neurospora crassa) [nM] | inhibition of fungal growth (Sclerotinia sclerotiorum; 2.5 μM - 0.005 μM) | inhibition of fungal growth (Sclerotinia sclerotiorum; 5 μM) | inhibition of fungal growth (Sclerotinia sclerotiorum; 10 μM)
COC(=O)Nc1nc2ccccc2[nH]1 [MBC standard, methyl 2-benzimidazolecarbamate, reference compound] | 0.023 μM - moderate inhibition of fungal growth. | 17–0.07 μM - total inhibition of fungal growth. | – | – | – | – | – | –
Pps-AMP1 mature peptide: mature peptide of Picramnia pentandra defensin clone pps.pk0010.g2, expressed in E. coli, refolded and purified (QRLCERASLTWSGNCGNTAHCDNQCRSWEHAQHGACHVRGGKHMCFCYFNC) | – | – | 2500 | 600 | 50 | 2.5 μM - 0.005 μM no inhibition of fungal growth. | 5 μM - moderate inhibiton of fungal growth. | 10 μM - total inhibition of fungal growth.
